Measurements reported in PMC5361737, “Potent and Selective KDM5 Inhibitor Stops Cellular Demethylation of H3K4me3 at Transcription Start Sites and Proliferation of MM1S Myeloma Cells” (Cell Chemical Biology, 2017).
“Also recorded” adds a separate entry of the source.

Key:
EGLN1 = EGLN1 (Homo sapiens, UniProt Q9GZT9); test: 2-Oxoglutarate oxygenase assay panel, MALDI-TOF assay; type: biochemical; conditions: read-out: pIC50 EGLN1 (converted)
Y2 (h) = Y2 (h) (Homo sapiens, UniProt P49146); test: Cerep Express Panel, agonist radioligand; type: binding; conditions: read-out: % Inhibition of reference (10 µM)
Sequence of Y2 (h) (P49146 whole entry): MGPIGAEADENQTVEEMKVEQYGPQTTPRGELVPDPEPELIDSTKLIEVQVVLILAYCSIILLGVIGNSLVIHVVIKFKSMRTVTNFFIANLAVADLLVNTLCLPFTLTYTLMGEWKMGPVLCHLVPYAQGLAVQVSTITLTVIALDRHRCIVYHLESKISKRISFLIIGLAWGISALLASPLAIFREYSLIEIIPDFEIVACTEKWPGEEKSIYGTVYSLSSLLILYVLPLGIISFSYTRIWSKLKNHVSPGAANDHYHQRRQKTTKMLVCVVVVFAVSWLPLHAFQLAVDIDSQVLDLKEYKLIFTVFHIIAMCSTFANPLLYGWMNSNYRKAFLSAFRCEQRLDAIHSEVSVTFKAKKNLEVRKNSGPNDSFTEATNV

[1] = system: cell line derived from human mesenchymal stem cells; test: Cell viability, mesenchymal stem cells; type: cell-based; conditions: treated for 7 days
Description: Figure S2 related to Figure 1 KDM5B Biochemical assay at different 2 -OG
Stem Cells (B) treated for 7 days. Data plotted represents the mean and standard deviation of four independent
2OG Concentration IC50 (mM) Ki […]

KDM3B = KDM3B (Homo sapiens, UniProt Q7LBC6); test: 2-Oxoglutarate oxygenase assay panel, AlphaScreen assay; type: biochemical; conditions: ± SEM
MINA53 = MINA53 (Homo sapiens, UniProt Q8IUF8); test: 2-Oxoglutarate oxygenase assay panel, RapidFire MS assay; type: biochemical; conditions: read-out: pIC50 MINA53 (converted)
Sequence of MINA53 (Q8IUF8 whole entry, species assumed): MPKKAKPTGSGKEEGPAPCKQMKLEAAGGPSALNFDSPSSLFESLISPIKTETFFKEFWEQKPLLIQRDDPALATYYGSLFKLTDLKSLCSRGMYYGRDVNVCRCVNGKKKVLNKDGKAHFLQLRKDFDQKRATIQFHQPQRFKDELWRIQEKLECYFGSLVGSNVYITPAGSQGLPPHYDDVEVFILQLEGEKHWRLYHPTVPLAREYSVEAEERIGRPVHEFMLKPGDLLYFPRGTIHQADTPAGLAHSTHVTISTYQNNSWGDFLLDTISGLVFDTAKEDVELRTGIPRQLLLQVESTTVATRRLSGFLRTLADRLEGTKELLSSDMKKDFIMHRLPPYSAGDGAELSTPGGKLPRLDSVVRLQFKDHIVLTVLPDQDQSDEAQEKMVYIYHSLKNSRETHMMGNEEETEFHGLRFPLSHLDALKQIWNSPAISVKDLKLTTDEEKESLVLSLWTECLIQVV

GAL2 (h) = GAL2 (h) (Homo sapiens, UniProt O43603); test: Cerep Express Panel, agonist radioligand; type: binding; conditions: read-out: % Inhibition of reference (10 µM)
Sequence of GAL2 (h) (O43603 whole entry): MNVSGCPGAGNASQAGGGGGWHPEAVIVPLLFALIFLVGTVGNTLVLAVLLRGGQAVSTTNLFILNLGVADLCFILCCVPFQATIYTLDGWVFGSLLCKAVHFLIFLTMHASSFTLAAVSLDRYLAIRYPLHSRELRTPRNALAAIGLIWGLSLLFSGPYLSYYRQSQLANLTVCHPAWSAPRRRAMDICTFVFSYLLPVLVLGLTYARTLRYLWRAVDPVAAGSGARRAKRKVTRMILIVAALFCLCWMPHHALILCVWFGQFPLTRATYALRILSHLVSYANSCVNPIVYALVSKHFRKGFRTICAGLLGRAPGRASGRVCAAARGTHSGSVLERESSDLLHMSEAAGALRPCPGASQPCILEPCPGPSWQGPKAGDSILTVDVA

D2S (h) = D2S (h) (Homo sapiens, UniProt P14416); test: Cerep Express Panel, antagonist radioligand; type: binding; conditions: read-out: % Inhibition of reference (10 µM)
Sequence of D2S (h) (P14416 1-414 isoform P14416-2): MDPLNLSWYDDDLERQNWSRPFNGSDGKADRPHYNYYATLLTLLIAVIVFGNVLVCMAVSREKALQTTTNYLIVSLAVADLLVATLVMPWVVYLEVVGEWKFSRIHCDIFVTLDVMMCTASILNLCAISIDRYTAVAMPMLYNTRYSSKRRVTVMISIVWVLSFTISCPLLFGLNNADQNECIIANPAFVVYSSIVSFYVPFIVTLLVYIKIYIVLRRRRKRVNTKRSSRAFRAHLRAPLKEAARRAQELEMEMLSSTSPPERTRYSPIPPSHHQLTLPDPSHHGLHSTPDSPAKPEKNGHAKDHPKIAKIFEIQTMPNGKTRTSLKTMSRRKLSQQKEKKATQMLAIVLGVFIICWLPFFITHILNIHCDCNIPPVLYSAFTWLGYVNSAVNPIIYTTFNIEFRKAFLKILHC

FIH = FIH (Homo sapiens, UniProt Q9NWT6); test: 2-Oxoglutarate oxygenase assay panel, MALDI-TOF assay; type: biochemical
Sequence of FIH (Q9NWT6 whole entry): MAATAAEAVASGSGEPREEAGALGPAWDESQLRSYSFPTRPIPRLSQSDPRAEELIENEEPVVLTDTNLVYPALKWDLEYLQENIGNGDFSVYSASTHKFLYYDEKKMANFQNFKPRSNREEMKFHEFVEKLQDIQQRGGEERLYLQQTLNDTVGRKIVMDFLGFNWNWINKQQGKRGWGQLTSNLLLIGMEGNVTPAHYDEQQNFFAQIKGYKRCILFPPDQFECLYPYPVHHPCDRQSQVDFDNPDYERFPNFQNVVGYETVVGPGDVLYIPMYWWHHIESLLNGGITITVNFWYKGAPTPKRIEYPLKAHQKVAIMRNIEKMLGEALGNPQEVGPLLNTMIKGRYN

5-HT6 (h) = 5-HT6 (h) (Homo sapiens, UniProt P50406); test: Cerep Express Panel, agonist radioligand; type: binding; conditions: read-out: % Inhibition of reference (10 µM)
Sequence of 5-HT6 (h) (P50406 whole entry): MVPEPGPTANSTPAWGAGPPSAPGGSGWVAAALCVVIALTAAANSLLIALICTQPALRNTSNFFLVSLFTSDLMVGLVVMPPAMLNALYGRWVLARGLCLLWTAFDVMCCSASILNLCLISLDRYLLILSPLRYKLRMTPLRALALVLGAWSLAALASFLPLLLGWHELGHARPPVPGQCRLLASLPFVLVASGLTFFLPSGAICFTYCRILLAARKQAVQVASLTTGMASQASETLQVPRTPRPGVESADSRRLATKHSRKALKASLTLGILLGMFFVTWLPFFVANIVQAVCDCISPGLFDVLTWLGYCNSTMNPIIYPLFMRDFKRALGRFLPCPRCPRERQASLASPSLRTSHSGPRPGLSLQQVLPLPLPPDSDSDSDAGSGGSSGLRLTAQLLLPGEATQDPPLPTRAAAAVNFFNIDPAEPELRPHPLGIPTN

VPAC1 (VIP1) (h) = VPAC1 (VIP1) (h) (Homo sapiens, UniProt P32241); test: Cerep Express Panel, agonist radioligand; type: binding; conditions: read-out: % Inhibition of reference (10 µM)
Sequence of VPAC1 (VIP1) (h) (P32241 31-457): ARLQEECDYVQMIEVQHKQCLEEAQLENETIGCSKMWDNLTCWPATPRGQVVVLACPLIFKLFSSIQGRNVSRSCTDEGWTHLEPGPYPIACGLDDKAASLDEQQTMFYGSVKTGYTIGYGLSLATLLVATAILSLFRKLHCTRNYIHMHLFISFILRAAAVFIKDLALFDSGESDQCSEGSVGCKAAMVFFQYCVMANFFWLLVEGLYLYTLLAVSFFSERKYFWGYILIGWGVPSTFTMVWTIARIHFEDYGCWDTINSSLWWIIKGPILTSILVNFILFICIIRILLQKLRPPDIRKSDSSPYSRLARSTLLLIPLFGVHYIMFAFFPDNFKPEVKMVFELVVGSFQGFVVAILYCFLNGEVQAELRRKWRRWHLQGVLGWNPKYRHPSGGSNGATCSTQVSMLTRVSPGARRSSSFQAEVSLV

alpha 1 (non-selective) = test: Cerep Express Panel, antagonist radioligand; type: binding
V1a (h) = V1a (h) (Homo sapiens, UniProt P37288); test: Cerep Express Panel, agonist radioligand; type: binding; conditions: read-out: % Inhibition of reference (10 µM)
Sequence of V1a (h) (P37288 whole entry): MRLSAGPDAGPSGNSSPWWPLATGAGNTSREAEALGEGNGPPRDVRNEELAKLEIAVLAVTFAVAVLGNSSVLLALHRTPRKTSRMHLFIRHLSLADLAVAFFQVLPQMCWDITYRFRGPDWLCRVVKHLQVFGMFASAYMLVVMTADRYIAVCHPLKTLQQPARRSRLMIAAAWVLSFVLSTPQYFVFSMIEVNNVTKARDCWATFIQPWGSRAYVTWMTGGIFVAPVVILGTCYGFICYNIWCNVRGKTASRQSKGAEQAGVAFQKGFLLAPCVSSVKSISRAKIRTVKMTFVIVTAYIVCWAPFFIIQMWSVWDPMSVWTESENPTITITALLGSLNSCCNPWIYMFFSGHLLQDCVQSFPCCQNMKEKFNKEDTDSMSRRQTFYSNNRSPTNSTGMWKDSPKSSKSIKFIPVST

5-HT5a (h) = 5-HT5a (h) (Homo sapiens, UniProt P47898); test: Cerep Express Panel, agonist radioligand; type: binding; conditions: read-out: % Inhibition of reference (10 µM)
Sequence of 5-HT5a (h) (P47898 whole entry): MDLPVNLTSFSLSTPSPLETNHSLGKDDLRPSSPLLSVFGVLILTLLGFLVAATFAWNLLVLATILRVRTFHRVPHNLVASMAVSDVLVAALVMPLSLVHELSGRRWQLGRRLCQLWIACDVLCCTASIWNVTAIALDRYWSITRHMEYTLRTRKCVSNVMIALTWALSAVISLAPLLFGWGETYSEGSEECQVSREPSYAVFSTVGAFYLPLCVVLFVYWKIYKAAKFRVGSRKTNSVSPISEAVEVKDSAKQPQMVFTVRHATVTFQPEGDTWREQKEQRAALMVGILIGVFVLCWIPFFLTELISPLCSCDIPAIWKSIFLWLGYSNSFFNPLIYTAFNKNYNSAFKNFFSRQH

H3K4me3 in MM1S cells = test: Quantitative ChIP-seq (ChIP-Rx spike-in) of H3K4me3; type: cell-based, human; conditions: 50 μM, 7 days, spike-in quantification
Description: Immediately prior to fixation in 1% formaldehyde, three million sf9 cells were added to each sample. Cells were fixed for 8 min at room temperature, lysed, and sonicated on a Bioruptor Pico for 3 repeats of 10 cycles of 30 s on/30 s off. The sonicated lysates were incubated for 1 hr at 4°C with pre-blocked protein A Sepharose beads, prior to overnight incubation with 1 μg of anti-H3K4me3 antibody (Millipore cat no. 07–473 lot no. 2207281). Pre-blocked Sepharose beads were added for 1 hr, the beads washed, and DNA was eluted followed by Proteinase K digestion. Libraries were constructed using the NebNext Ultra DAN Kit (NEB) and sequenced on an Illumina NextSeq 500 platform. Libraries were also generated for the input of each condition and sequenced in a similar manner.
Sequencing reads were aligned to the concatenated human/sf9 genome generated earlier using Bowtie (version 1.1.2), allowing only reads that matched uniquely to one location. The number of reads mapping to the human and sf9 genomes separately in each condition was calculated. The number of sf9 reads-per-million total aligned reads was calculated for each pull-down condition and corrected according to the percentage of sf9 reads in the corresponding input samples. A scaling factor for normalization was then calculated for each pull-down based on the reciprocal of the corrected sf9 reads per million for each sample. […]

[2] = system: MM1S multiple myeloma cells; test: Fluorescent cell-viability assay (PrestoBlue); type: cell-based, human
Description: MM1S myeloma cells were cultured in RMPI with 10% heat-inactivated FCS and 2 mM glutamine under standard conditions. […] Viability was measured using PrestoBlue reagent and normalized to a vehicle control. Data were plotted and IC50 values were calculated in Prism (v5.1).

NTS1 (NT1) (h) = NTS1 (NT1) (h) (Homo sapiens, UniProt P30989); test: Cerep Express Panel, agonist radioligand; type: binding; conditions: read-out: % Inhibition of reference (10 µM)
Sequence of NTS1 (NT1) (h) (P30989 whole entry): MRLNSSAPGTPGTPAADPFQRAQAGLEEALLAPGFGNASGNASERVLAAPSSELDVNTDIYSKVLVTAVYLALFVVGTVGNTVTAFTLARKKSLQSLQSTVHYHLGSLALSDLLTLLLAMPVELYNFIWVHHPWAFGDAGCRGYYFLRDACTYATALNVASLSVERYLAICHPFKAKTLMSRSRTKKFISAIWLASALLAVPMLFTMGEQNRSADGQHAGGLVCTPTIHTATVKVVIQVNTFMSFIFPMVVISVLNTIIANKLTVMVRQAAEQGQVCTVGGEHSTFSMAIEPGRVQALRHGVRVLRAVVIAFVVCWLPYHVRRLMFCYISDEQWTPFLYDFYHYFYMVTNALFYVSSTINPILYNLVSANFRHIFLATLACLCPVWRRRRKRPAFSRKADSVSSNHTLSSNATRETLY

Sequence of EGLN1 (Q9GZT9 whole entry, species assumed): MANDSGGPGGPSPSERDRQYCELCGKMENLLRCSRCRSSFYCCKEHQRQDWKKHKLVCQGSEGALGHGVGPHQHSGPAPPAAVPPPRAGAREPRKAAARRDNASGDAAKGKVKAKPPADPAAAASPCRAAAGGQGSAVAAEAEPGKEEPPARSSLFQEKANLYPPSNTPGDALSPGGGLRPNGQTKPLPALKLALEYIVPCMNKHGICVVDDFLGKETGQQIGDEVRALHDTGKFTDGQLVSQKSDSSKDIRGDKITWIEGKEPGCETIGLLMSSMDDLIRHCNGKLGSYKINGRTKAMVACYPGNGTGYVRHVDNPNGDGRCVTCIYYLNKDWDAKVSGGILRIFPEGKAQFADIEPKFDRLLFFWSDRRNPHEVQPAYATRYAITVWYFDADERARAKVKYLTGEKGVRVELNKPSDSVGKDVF

CCN(CCN(C)C)C(=O)CNCc1cc(C(N)=O)ccn1 [KDOAM-25]
IC50 (EGLN1): > 100 µM | inhibition at 10 µM (Y2 (h)): -1% | effect on viability of mesenchymal stem cells [1]: does not decrease cell viability; also recorded: did not show the same decrease in viability | pIC50 KDM3 B (KDM3B): 4.1 ± 0.65 | IC50 (MINA53): > 100 µM | inhibition at 10 µM (GAL2 (h)): -4% | inhibition at 10 µM (D2S (h)): 19% | IC50 (FIH): > 100 µM | inhibition at 10 µM (5-HT6 (h)): -3% | inhibition at 10 µM (VPAC1 (VIP1) (h)): -12% | % Inhibition of reference (10 µM) (alpha 1 (non-selective)): -15% | inhibition at 10 µM (V1a (h)): -4% | inhibition at 10 µM (5-HT5a (h)): -24% | H3K4me3 level compared with the vehicle control (H3K4me3 in MM1S cells): approximately twice | IC50 ([2]; Homo sapiens, MM1.S, after a delay of 5–7 days): ~30 µM | effect on cell viability, in words ([2]; MM1S, after 3 days): little effect on cell viability | inhibition at 10 µM (NTS1 (NT1) (h)): -12%
